# Assays:
# [1] = Solid-state stability study at 40° C. and 75% relative humidity; type: physicochemical; conditions: 40° C./75% RH, sealed container; for Storage stability compared to pure cannabidiolic acid: up to 4 weeks
# Procedure: The physical stability of the cannabidiolic acid cocrystals was examined with respect to solid form conversion or signs of decomposition or decarboxylation, and to compare the results with those for pure cannabidiolic acid. In order to assess the storage potential of the cocrystals within a reasonable timeframe standard accelerated storage conditions of 40° C. and 75% relative humidity were chosen. 50 mg each of the 1:1 cannabidiolic acid L-phenylalanine, 1:1 cannabidiolic acid vanillin, 1:1 cannabidiolic acid betaine, 1:1 cannabidiolic acid ethyl maltol, 1:1 cannabidiolic acid L-proline and cannabidiolic acid were separately placed in a sealed container at 40° C. and 75% relative humidity and monitored periodically over a 4-week time period. All samples that had not decomposed and remained as solids were analyzed by XRPD after this time to observe any potential form changes. At the start of the study, all cocrystal samples were white solids while the pure cannabidiolic acid was an off-white solid.
# 5-HT1A = biological target: T1, 5-HT1A (Rattus norvegicus, UniProt P19327); conditions: higher affinity than CBD; Bolognini et al. 2012; cited from earlier work
# T1 sequence (P19327 1-422): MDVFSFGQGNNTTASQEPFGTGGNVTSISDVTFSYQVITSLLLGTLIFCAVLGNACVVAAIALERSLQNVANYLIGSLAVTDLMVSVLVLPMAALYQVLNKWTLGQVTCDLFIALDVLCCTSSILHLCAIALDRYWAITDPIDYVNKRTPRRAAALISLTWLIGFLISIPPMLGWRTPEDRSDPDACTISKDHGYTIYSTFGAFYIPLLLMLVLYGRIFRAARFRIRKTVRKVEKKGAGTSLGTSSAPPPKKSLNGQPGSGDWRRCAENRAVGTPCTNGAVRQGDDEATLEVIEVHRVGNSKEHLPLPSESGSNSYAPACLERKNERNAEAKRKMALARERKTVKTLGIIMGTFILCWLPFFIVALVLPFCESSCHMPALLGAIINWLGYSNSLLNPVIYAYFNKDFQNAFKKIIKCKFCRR
# [2] = system: nausea and vomiting in a rat model; conditions: via 5-HT1A activation mechanism, Bolognini et al. 2012; cited from earlier work
# COX-2 = biological target: T2, COX-2 (Homo sapiens, UniProt P35354); conditions: Takeda 2008; cited from earlier work
# T2 sequence (P35354 18-604): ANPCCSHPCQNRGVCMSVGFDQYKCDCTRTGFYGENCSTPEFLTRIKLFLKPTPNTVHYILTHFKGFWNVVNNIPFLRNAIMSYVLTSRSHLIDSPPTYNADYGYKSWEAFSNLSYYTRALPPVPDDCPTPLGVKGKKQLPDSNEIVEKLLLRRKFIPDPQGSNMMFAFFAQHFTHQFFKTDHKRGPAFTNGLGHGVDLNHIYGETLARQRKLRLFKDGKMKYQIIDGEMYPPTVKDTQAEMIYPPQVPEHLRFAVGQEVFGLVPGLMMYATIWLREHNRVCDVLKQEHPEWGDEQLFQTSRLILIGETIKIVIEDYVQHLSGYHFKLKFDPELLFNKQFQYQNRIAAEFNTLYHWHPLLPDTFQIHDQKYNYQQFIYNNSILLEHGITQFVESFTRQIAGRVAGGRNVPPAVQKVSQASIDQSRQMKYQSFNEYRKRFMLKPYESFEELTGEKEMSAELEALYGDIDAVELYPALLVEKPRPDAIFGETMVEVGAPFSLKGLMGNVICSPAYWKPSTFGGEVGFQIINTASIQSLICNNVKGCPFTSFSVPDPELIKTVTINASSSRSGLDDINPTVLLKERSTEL
# [3] = WO2017025712; cited from earlier work
compound,measurement,setting,value
"C=C(C)[C@@H]1CCC(C)=C[C@H]1c1c(O)cc(CCCCC)c(C(=O)O)c1O.C[N+](C)(C)CC(=O)[O-] [1:1 CBDA Betaine Cocrystal, 1:1 cannabidiolic acid betaine cocrystal]",XRPD (solid form change),[1]; 4 weeks,No change
same,XRPD (solid form change),"[1]; 4 weeks, listed as 1:1 cannabidiolic acid betaine",no solid form conversion or dissociation had occurred
same,Appearance,"[1]; 4 weeks, white solid at start",No change
same,Appearance,"[1]; 4 weeks, white solid at start, listed as 1:1 cannabidiolic acid betaine",remained unchanged as white solids
same,Storage stability compared to pure cannabidiolic acid,[1],significantly superior storage properties compared to pure CBDA
"C=C(C)[C@@H]1CCC(C)=C[C@H]1c1c(O)cc(CCCCC)c(C(=O)O)c1O.CCc1occc(=O)c1O [1:1 CBDA Ethyl Maltol Cocrystal, 1:1 cannabidiolic acid ethyl maltol cocrystal]",Time to conversion into dark brown liquid,[1],≤ 2 weeks
same,Appearance,"[1]; 2 weeks, white solid at start",Dark brown liquid
same,Storage stability compared to pure cannabidiolic acid,[1],more stable than pure cannabidiolic acid
"C=C(C)C1CCC(C)=CC1c1c(O)cc(CCCCC)c(C(=O)O)c1O.O=C(O)C1CCCN1 [1:1 CBDA L-Proline Cocrystal, 1:1 cannabidiolic acid L-proline cocrystal]",XRPD (solid form change),[1]; 4 weeks,No change
same,XRPD (solid form change),"[1]; 4 weeks, listed as 1:1 cannabidiolic acid L-proline cocrystal",same crystalline structure
same,Appearance,"[1]; 4 weeks, white solid at start",tan solid
same,Appearance,"[1]; 4 weeks, white solid at start, listed as 1:1 cannabidiolic acid L-proline cocrystal",tanned colored solid
"C=C(C)[C@@H]1CCC(C)=C[C@H]1c1c(O)cc(CCCCC)c(C(=O)O)c1O.N[C@@H](Cc1ccccc1)C(=O)O [1:1 CBDA Phenylalanine Cocrystal, 1:1 cannabidiolic acid L-phenylalanine cocrystal]",XRPD (solid form change),[1]; 4 weeks,No change
same,XRPD (solid form change),"[1]; 4 weeks, listed as 1:1 cannabidiolic acid L-phenylalanine",no solid form conversion or dissociation had occurred
same,Appearance,"[1]; 4 weeks, white solid at start",No change
same,Appearance,"[1]; 4 weeks, white solid at start, listed as 1:1 cannabidiolic acid L-phenylalanine",remained unchanged as white solids
same,Storage stability compared to pure cannabidiolic acid,[1],significantly superior storage properties compared to pure CBDA
"C=C(C)[C@@H]1CCC(C)=C[C@H]1c1c(O)cc(CCCCC)c(C(=O)O)c1O.COc1cc(C=O)ccc1O [1:1 CBDA Vanillin Cocrystal, 1:1 cannabidiolic acid vanillin cocrystal]",Time to conversion into dark brown liquid,[1],≤ 3 weeks
same,Appearance,"[1]; 3 weeks, white solid at start",Dark brown liquid
same,Storage stability compared to pure cannabidiolic acid,[1],more stable than pure cannabidiolic acid
"C=C(C)[C@@H]1CCC(C)=C[C@H]1c1c(O)cc(CCCCC)c(C(=O)O)c1O [Pure CBDA, cannabidiolic acid]",Time to deliquescence to a liquid,[1],Within one hour
same,Appearance,"[1]; 2 hours, off-white solid at start",Dark brown liquid
same,Appearance,"[1]; 2 hours, off-white solid at start, listed as pure CBDA",liquid that within a further hour had turned dark brown in color
same,Affinity for 5-HT1A relative to CBD,5-HT1A,100 fold
same,"Inhibition of nausea and vomiting, potency versus CBD",[2],significantly greater potency than CBD
same,Inhibition of COX-2 activity,COX-2,selectively inhibit COX-2 activity
same,Efficacy in treating epilepsy versus CBD,[3],more effective than CBD
